PMC3416963 (Biochemistry, 2012)

Biological target: LigI (Sphingobium sp. SYK-6, UniProt O87170)
Assay: spectrophotometric PDC hydrolysis at […] nm
Assay type: biochemical

Chain of LigI (O87170 2-293): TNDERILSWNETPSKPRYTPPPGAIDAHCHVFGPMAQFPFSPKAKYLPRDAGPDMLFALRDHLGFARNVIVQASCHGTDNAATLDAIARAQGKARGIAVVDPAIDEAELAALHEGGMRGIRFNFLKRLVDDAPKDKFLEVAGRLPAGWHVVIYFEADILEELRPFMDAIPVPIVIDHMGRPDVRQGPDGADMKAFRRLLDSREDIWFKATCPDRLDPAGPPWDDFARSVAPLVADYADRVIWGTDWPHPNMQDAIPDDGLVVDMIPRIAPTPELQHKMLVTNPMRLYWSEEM

O=C(O)c1ccnc(C(=O)O)c1 [compound 2, pyridine-2,4-dicarboxylic acid]
Ki: 75 ± 2 µM

O=C(O)c1cc(O)cc(C(=O)O)c1 [compound 5, 5-hydroxyisophthalic acid]
Ki: 40 ± 3 µM
